Source: PMC12373846, “Hemoglobin as a pseudoperoxidase and drug target for oxidative stress-related diseases” (Signal Transduction and Targeted Therapy, 2025)
Structures can show the parent of a compound that is named as a salt. Where two headings read alike, the source gives them in different places.

Legend:
Hb = molecular target: T1, Hb (Homo sapiens, UniProt P68871); test: ROS-Glo H2O2 assay with Hb; type: biochemical
T1 construct: purchased Sigma-Aldrich H7379
Procedure: Hb (Sigma‒Aldrich, H7379), H2O2 (Sigma‒Aldrich, H1009), and Amplex Red reagents (Invitrogen, A12222) were obtained for the study. A 4 μM H2O2 solution was prepared in 50 mM sodium phosphate buffer (pH 7.2). Then, 49 μl of this mixture was mixed with 1 μl of the test compound in DMSO or distilled water. The mixture was combined with an assay mixture of Amplex Red reagent (20 mM stock to 0.1 mM) and HRP (200 U/ml stock to 0.2 U/ml) and added to the wells at 50 μl/well. After a 60-min incubation at 37 °C, resorufin production was quantified via a microplate fluorescence reader (SpectraMax iD5, Molecular Devices) at ex/em = 535/580 nm. […] For the ROS-Glo assay, the H2O2 substrate solution and ROS-Glo detection solution were prepared according to the manufacturer’s instructions. 10 μM H2O2 and drugs were prepared as in the Amplex Red assay, with HRP, Hb, CAT, or GPx added as needed. The mixture was added to the wells at 100 μl/well and incubated for 60 min at 37 °C. H2O2 substrate solution was added, and the mixture was incubated at room temperature for 30 min. After the H2O2 substrate solution was added and incubated at room temperature for 30 min, the ROS-Glo detection solution was added, and the mixture was incubated for 15 min. Luminescence was measured via iD5 microplate readers. […] The U/ml was calculated on the basis of the amount of H2O2 reduced by Hb during the reaction, using μg/ml and U/mg.
To evaluate the extent of peroxidase function facilitation by HTPEB (1 μM) and KDS12025 (1 μM) in HRP (0.2 U/ml) and Hb (10 μg/ml), we used the ROS-Glo assay over 30 and 60 min. The fold change was calculated by dividing the delta values during the 30-min reaction for the vehicle over drug conditions.
To assess enzyme activity, the amount of H2O2 consumed over a specific time was quantified alongside a standard curve. For the peroxidase function of Hb, Hb was administered at doses ranging from 0.01 to 112 U/ml and preincubated with H2O2 and either DMSO, HTPEB (1 μM), or KDS12025 (1 μM) at 37 °C for 30 min. The remaining H2O2 was measured via the ROS-Glo assay and normalized against conditions without Hb. The dose‒response curve, EC50, and EC20 for H2O2 decomposition were calculated and determined by fitting the data with GraphPad Prism software. The fitting method had no special handling of outliers, and least squares regression with confidence intervals of the parameters was 95%.

HRP = molecular target: T2, HRP (Armoracia rusticana, UniProt P00433); test: H2O2 assay with HRP (HRP-EC50); type: biochemical, horseradish
T2 sequence (P00433 31-353): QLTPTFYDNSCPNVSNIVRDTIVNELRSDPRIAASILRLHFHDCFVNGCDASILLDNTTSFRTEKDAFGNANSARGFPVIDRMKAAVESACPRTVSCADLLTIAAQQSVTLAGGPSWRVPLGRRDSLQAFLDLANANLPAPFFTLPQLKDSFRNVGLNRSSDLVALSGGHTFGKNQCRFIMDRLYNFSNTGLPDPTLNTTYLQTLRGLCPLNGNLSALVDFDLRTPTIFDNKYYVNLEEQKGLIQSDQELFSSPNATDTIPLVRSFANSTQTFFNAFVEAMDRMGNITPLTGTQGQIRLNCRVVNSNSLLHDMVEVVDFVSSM
Procedure: Hb (Sigma‒Aldrich, H7379), H2O2 (Sigma‒Aldrich, H1009), and Amplex Red reagents (Invitrogen, A12222) were obtained for the study. A 4 μM H2O2 solution was prepared in 50 mM sodium phosphate buffer (pH 7.2). Then, 49 μl of this mixture was mixed with 1 μl of the test compound in DMSO or distilled water. The mixture was combined with an assay mixture of Amplex Red reagent (20 mM stock to 0.1 mM) and HRP (200 U/ml stock to 0.2 U/ml) and added to the wells at 50 μl/well. After a 60-min incubation at 37 °C, resorufin production was quantified via a microplate fluorescence reader (SpectraMax iD5, Molecular Devices) at ex/em = 535/580 nm. The H2O2-decomposing activity was estimated via the following equation: (sample fluorescence-blank fluorescence)/(control […]-blank fluorescence) × 100. For the ROS-Glo assay, the H2O2 substrate solution and ROS-Glo detection solution were prepared according to the manufacturer’s instructions. 10 μM H2O2 and drugs were prepared as in the Amplex Red assay, with HRP, Hb, CAT, or GPx added as needed. The mixture was added to the wells at 100 μl/well and incubated for 60 min at 37 °C. H2O2 substrate solution was added, and the mixture was incubated at room temperature for 30 min. After the H2O2 substrate solution was added and incubated at room temperature for 30 min, the ROS-Glo detection solution was added, and the mixture was incubated for 15 min. Luminescence was measured via iD5 microplate readers. The H2O2-decomposing activity was estimated via the following equation: (sample luminescence-blank luminescence)/(control luminescence-blank luminescence) × 100. The U/ml was calculated on the basis of the amount of H2O2 reduced by Hb during the reaction, using μg/ml and U/mg.

PAMPA BBB permeability = type: in vitro ADME; details: for BCS code: CNS +/- classification: 50 μM, 4 h; for Papp at 4 h, 50 μM: PAMPA, pH 7.4, 50 μM
Procedure: A parallel artificial membrane permeability assay (PAMPA)^70 was performed to validate the blood-brain barrier permeability of KDS12025. The procedure began by preparing a donor solution of the compound in a pH 7.4 donor buffer. This solution was added to the wells of a deep well plate, followed by the addition of a high-sensitivity UV plate filled with donor buffer to serve as the blank sample. An initial sample for the UV plate was taken to establish a baseline reading. The PAMPA sandwich was then assembled by adding the donor plate mixture to the donor plate well, followed by placing a BBB-lipid coated membrane on top and an acceptor plate filled with acceptor buffer. This setup was incubated at 25 °C for a specific duration to allow diffusion. Post-incubation, a sample from the acceptor plate was taken, and the UV absorbance was measured to determine the permeated amount of the test compound. The permeability was then calculated using the PAMPA explorer program, considering the initial donor concentration and the acceptor's concentration after incubation.

[1] = tested on: primary cultured hippocampal astrocytes; test: DCFDA intracellular ROS assay; type: cell-based, mouse; details: Aβ 5μM + sodium pyruvate 1mM, Fig. 3e
Procedure: (§1) Primary hippocampal astrocytes were obtained from postnatal day 0‒2 (P0‒2) C57BL/6 mice as previously described.[73] The hippocampal tissue was dissected free of meninges, minced, and dissociated into a single-cell suspension by trituration. The cells were grown in Dulbecco’s modified Eagle’s medium supplemented with D-glucose (4500 mg/L), L-glutamine, sodium pyruvate (110 mg/L), 10% heat-inactivated horse serum, 10% heat-inactivated fetal bovine serum, and 1000 U/ml penicillin‒streptomycin. The cells were maintained at 37 °C in a humidified atmosphere containing 5% CO2.
The intracellular ROS levels of astrocytes were determined via 2′,7′- dichlorodihydrofluorescein diacetate (DCFDA; Thermo Fisher). Primary cultured hippocampal astrocytes were seeded into black 96-well plates (Ibidi) at a density of 5 × 10⁴ cells per well. The plates were incubated with oligomerized Aβ42 in the presence of KDS12008, KDS12017, KDS12025, HTPEB (10 µM each), and sodium pyruvate (1 mM). These cells were subsequently washed with Ca^2+ and Mg^2+-containing PBS, followed by the application of 30 µM DCFDA and incubation at 37 °C for 30 min in a dark incubator. The mean fluorescence intensity of each well was measured via iD5 microplate readers at 485 nm and 530 nm. The fluorescence values were calculated by subtracting the blank readings and normalizing them to those of the control group.

[2] = tested on: primary cultured hippocampal astrocytes; test: oROS-G intracellular H2O2 imaging; type: cell-based, mouse
Procedure: as §1
H2O2 specific, highly sensitive, and fast on-and-off kinetics, a genetically encoded oROS-G plasmid kindly provided by Dr. Andre Berndt. oROS-G was cloned under the GFAP104 promoter and delivered into primary cultured hippocampal astrocytes via the NeoN^TM transfection system (Invitrogen). The cells were treated with various concentrations of Aβ (1 to 10 μM) or 6-OHDA (Tocris, 2547; 10 to 50 μM) to induce aberrant H2O2. For subsequent experiments, 5 μM Aβ and 30 μM 6-OHDA were selected on the basis of initial dose‒response studies. KDS12025 (10 μM) and sodium pyruvate (1 mM) were applied as indicated in each experiment. For live-cell imaging, astrocytes were maintained in a humidified chamber at 37 °C with 5% […] during imaging to preserve physiological conditions. Changes in the fluorescence of oROS-G were recorded via an A1 Nikon confocal microscope equipped with a temperature- and humidity-controlled stage. Images were captured every 20 min for up to 40 h (20for the 6-OHDA experiments) via the NIS-Elements software (Nikon, Japan) for time-lapse imaging. The excitation and emission wavelengths for oROS-G fluorescence were set to 485 nm and 538 nm, respectively. Endpoint fluorescence measurements were also collected for KDS12025 dose-dependent experiments. To analyze the fluorescence intensity, individual regions of interest (ROIs) were manually selected for each astrocyte via NIS-Elements software (Nikon, Japan). The fluorescence intensity changes were normalized to the baseline values (ΔF/F0) to quantify the H2O2 dynamics. To determine the EC50 of KDS12025, endpoint fluorescence intensity data from oROS-G experiments were normalized to those of the Aβ+vehicle control group. The normalized data were analyzed via GraphPad Prism software to fit a four-parameter logistic curve, yielding the EC50 value for the H2O2-decomposing activity of KDS12025.

[3] = Tables S2, S3, read-out: HB-EC50
[4] = Tables S2, S3, read-out: HRP-EC50
[5] = read-out: BCS code: permeability classification

T1 sequence (P68871 2-147 limits assumed): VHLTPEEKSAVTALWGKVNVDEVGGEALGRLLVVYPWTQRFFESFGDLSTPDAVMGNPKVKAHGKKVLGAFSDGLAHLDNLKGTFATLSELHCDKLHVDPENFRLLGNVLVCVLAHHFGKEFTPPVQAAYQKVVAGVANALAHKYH
T1 sequence (P69905 2-142 partner limits assumed): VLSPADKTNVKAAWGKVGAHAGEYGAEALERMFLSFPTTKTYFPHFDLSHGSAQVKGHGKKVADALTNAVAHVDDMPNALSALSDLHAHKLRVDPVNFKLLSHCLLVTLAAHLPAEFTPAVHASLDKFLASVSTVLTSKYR

| Structure (SMILES) | EC50 (Hb; [3]) [nM] | EC50 (HRP; [4]) [nM] | other results |
| --- | --- | --- | --- |
| O=C(O)c1ccc(NCCc2ccc(C(F)(F)F)cc2)cc1 [7f, 4-((4-(trifluoromethyl)phenethyl)amino)benzoic acid] | > 10000 | 22100 | – |
| Cc1ccc(O)c(C(=O)O)c1 [p-Cresotic acid, reference compound] | > 10000 | > 10000 | – |
| CNC(=C[N+](=O)[O-])NCCSCc1ccc(CN(C)C)o1 [Ranitidine] | – | – | BCS code: CNS +/- classification (PAMPA BBB permeability): - (< 10); Papp at 4 h, 50 μM (PAMPA BBB permeability; [5]): < 0.4 ×10⁻⁶ cm/s |
| Nc1ccc(O)c(C(=O)O)c1 [Mesalazine, reference compound] | 213 | 3600 | – |
| CNc1ccc(NCCc2ccc(OC)cc2)cc1 [8e, N^1-(4-methoxyphenethyl)-N^4-methylbenzene-1,4-diamine] | 69.5 | 790 | – |
| NCCc1ccc(C(F)(F)F)cc1 [2-(4-(Trifluoromethyl)phenyl)ethylamine, reference compound] | – | – | EC50 (Hb): > 10000 nM; EC50 (HRP): > 10000 nM |
| Oc1ccc(NCCc2ccc(C(F)(F)F)cc2)cc1 [7c, 4-((4-(trifluoromethyl)phenethyl)amino)phenol] | 5090 | > 10000 | – |
| CNc1ccc(NCCc2ccccc2)cc1 [8f, N^1-methyl-N^4-phenethylbenzene-1,4-diamine hydrochloride salt] | 78.1 | 897 | – |
| CC(=O)[C@H]1CC[C@H]2[C@@H]3CCC4=CC(=O)CC[C@]4(C)[C@H]3CC[C@]12C [Progesterone] | – | – | BCS code: CNS +/- classification (PAMPA BBB permeability): + (> 10); Papp at 4 h, 50 μM (PAMPA BBB permeability; U.V, read-out: Pe (PAMPA BBB permeability)): 42.2 ×10⁻⁶ cm/s; Papp at 4 h, 50 μM (PAMPA BBB permeability; [5]): > 0.4 ×10⁻⁶ cm/s |
| CC(=O)C(=O)[O-].[Na+] [Sodium pyruvate, sodium pyruvate, reference compound] | – | – | Aβ-induced ROS level (DCFDA), normalized to control [1]: 149.1±6.194; oROS-G H2O2 level ([2]; 6-OHDA 30 μM + sodium pyruvate, Fig. 3k): 177.0±17.5; oROS-G H2O2 level, 40-h imaging ([2]; Aβ 5 μM + sodium pyruvate 1 mM, Fig. 3h): 137.5±9.751; oROS-G H2O2 level, 40-h imaging ([2]; putrescine 180 μM + sodium pyruvate 1 mM, Fig. 3i): 189.0±23.55 |
| CNc1ccc(NCCc2cccc(C(F)(F)F)c2)cc1 [8g, N^1-methyl-N^4-(3-(trifluoromethyl)phenethyl)benzene-1,4-diamine hydrochloride salt] | 88.4 | 378 | – |
| NCCc1cc(O)c(O)cc1O [6-OHDA, 6-hydroxydopamine, reference compound] | – | – | oROS-G H2O2 level ([2]; 6-OHDA 10μM, Fig. 3j): 153.8±24.7; oROS-G H2O2 level ([2]; 6-OHDA 30μM, Fig. 3j): 211.9±18.2; oROS-G H2O2 level ([2]; 6-OHDA 50μM, Fig. 3j): 271.2±14.8 |
| O=C(O)c1cccc(NCCc2ccc(C(F)(F)F)cc2)c1 [7e, 3-((4-(trifluoromethyl)phenethyl)amino)benzoic acid] | > 10000 | > 10000 | – |
| FC(F)(F)c1ccc(CCNc2ccccc2)cc1 [7b, N-(4-(trifluoromethyl)phenethyl)aniline] | – | > 10000 | – |
| CNc1ccc(NCCc2cccc(OC)c2)cc1 [8d, N^1-(3-methoxyphenethyl)-N^4-methylbenzene-1,4-diamine hydrochloride salt] | 85.5 | 516 | – |
| O=C(O)c1ccccc1O [Salicylic Acid, reference compound] | > 10000 | > 10000 | – |
| COc1ccc(NCCc2ccc(C(F)(F)F)cc2)cc1 [7d, 4-methoxy-N-(4-(trifluoromethyl)phenethyl)aniline] | 23400 | 13300 | – |
| CNc1ccc(NCCc2ccccc2C(F)(F)F)cc1 [8h, N^1-methyl-N^4-(2-(trifluoromethyl)phenethyl)benzene-1,4-diamine hydrochloride salt] | 69.1 | 500 | – |
